Values after ≈ are worked out from the molar mass of the structure shown.
How the values were obtained:
CD4+ T cells = experiment: in vitro T cell activity assay (CTV-stained CD4+ T cell proliferation, flow cytometry); format: cell-based; details: B6J mouse spleen CD4+ T cells activated with CD3/CD28 Dynabeads, 72 hours incubation, 0.01-1000 ng/mL, CTV intensity
Excerpt: The degrees of decreases in immunosuppressive activity of the nine novel compounds were identified by a known in vitro T cell activity assay (J. Immunol. 143:718-726, 1989).
CD4+ T cell division is an indicator of immune response. When CD4+ T cells stained with Cell Trace™ Violet (CTV) proliferate by immune responses, the amount of CTV of each cell decreases, and thus the degrees of immunosuppressive activity were identified using this as an indicator.
Single cells were isolated from spleen of 6- to 8-week-old B6J experimental mice, and CD4+ T cells were isolated using a MagniSort® Mouse CD4 T cell Enrichment Kit (eBioscience). CD4+ T cells were stained with a Cell Trace™ Violet (CTV) Cell Proliferation Kit (Molecular Probes), and FK506 or the nine novel compounds were added thereto in concentrations of 0.01 ng/mL, 0.1 ng/mL, 1 ng/mL, 10 ng/mL, 100 ng/mL, and 1000 ng/mL, respectively, followed by incubation for 72 hours. In order to activate T cells, Dynabeads® Mouse T-Activator CD3/CD28 (Gibco) was used. As a control, inactivated T cells were used. After incubation, CTV intensity was analyzed by flow cytometry.
Table 12 below and FIG. 55 show the degrees of T cell proliferation based on CTV intensities measured using a flow cytometer, indicating the degrees of immunosuppressive activity of FK506 and the nine novel compounds.

vibrissae tissue of mice = experiment: hair growth-promoting activity in cultured isolated mouse vibrissae; format: cell-based; details: histology of cultured treated vibrissae, FIG. 58
Procedure: Hair growth-promoting activity of the nine novel compounds of the present invention relative to that of the parent drug (FK506) was evaluated using vibrissae tissue of mice. The mouth and mouth tissue (whisker pad) around the mouth where thick hair grows were peeled off from each of 6- to 8-week-old experimental black mouse (C57BL/6 mouse) and treated with […] for a short time of several seconds. The treated mouth tissue was prepared in a state of being immersed in phosphate-buffered saline (PBS) supplemented with 1% penicillin/streptomycin (P/S) on ice. Surrounding subcutaneous fat tissue and connective tissue were removed using forceps and blades while observing the prepared mouth tissue using a dissecting microscope to expose vibrissae tissue. […] Based on the results, it was confirmed that the composition for promoting hair growth, including at least one of the nine novel compounds of the present invention as an active ingredient, had the effects on promoting hair growth as desired, and thus it was determined that the composition may be effectively used for preventing and treating hair loss.

Row | Compound | Immunosuppression IC50 (CD4+ T cells) | IC50 (CD4+ T cells; read-out: Immunosuppression IC50) | expression of growth marker (Ki67) of cells compared to an untreated group (vibrissae tissue of mice)
1 | C=CC[C@@H]1/C=C(\C)C[C@H](C)C[C@H](OC)[C@H]2O[C@@](O)(CC(=O)N3CCCC[C@H]3C(=O)O[C@H](/C(C)=C/C3CC[C@@H](O)[C@H](OC)C3)[C@H](C)[C@H](O)CC1=O)[C@H](C)C[C@@H]2OC (stereo partly drawn) [9-deoxo-FK506, reference compound] | 0.513 ng/mL | – | –
2 | 9-deoxo-31-O-demethyl-prolyl-FK506 | 886.5 ng/mL | – | –
3 | C=CCC1/C=C(\C)CC(C)CC(OC)C2OC(O)(C(=O)C(=O)N3CCCCC3C(=O)OC(/C(C)=C/C3CCC(O)C(O)C3)C(C)C(O)CC1=O)C(C)CC2OC (stereo not drawn) [31-O-demethyl-FK506, reference compound] | 0.246 ng/mL | – | –
4 | CCCC1C=C(C)CC(C)CC(OC)C2OC(O)(CC(=O)N3CCCCC3C(=O)OC(C(C)=CC3CCC(O)C(OC)C3)C(C)C(O)CC1=O)C(C)CC2OC (stereo not drawn) [9-deoxo-36,37-dihydro-FK506] | 14.1 ng/mL | – | –
5 | CCC1C=C(C)CC(C)CC(OC)C2OC(O)(CC(=O)N3CCCCC3C(=O)OC(C(C)=CC3CCC(O)C(OC)C3)C(C)C(O)CC1=O)C(C)CC2OC (stereo not drawn) [9-deoxo-FK520] | 24.98 ng/mL | – | –
6 | C=CC[C@@H]1/C=C(\C)C[C@H](C)C[C@H](OC)[C@H]2O[C@@](O)(C(=O)C(=O)N3CCCC[C@H]3C(=O)O[C@H](/C(C)=C/[C@@H]3CC[C@@H](O)[C@H](OC)C3)[C@H](C)[C@@H](O)CC1=O)[C@H](C)C[C@@H]2OC [FK506, reference compound] | – | 0.027 ng/mL (≈ 0.0336 nM) | –
7 | CC[C@@H]1/C=C(\C)C[C@H](C)C[C@H](OC)[C@H]2O[C@@](O)(CC(=O)N3CCCC[C@H]3C(=O)O[C@H](/C(C)=C/[C@@H]3CC[C@@H](O)[C@H](O)C3)[C@H](C)[C@@H](O)CC1=O)[C@H](C)C[C@@H]2OC [9-deoxo-31-O-demethyl-FK520] | 258.1 ng/mL | – | overexpressed
8 | C=CC[C@@H]1/C=C(/C)C[C@H](C)C[C@H](OC)[C@H]2O[C@@](O)(CC(=O)N3CCCC[C@H]3C(=O)O[C@H](/C(C)=C/[C@@H]3CC[C@@H](O)[C@H](O)C3)[C@H](C)[C@@H](O)CC1=O)[C@H](C)C[C@@H]2OC [9-deoxo-31-O-demethyl-FK506, reference compound] | 15.09 ng/mL | – | –
9 | COC1CC(C=C(C)C2OC(=O)C3CCCCN3C(=O)CC3(O)OC(C(OC)CC(C)CC(C)=CC(C)C(=O)CC(O)C2C)C(OC)CC3C)CCC1O (stereo not drawn) [9-deoxo-FK523] | 1985 ng/mL | – | –
10 | CO[C@H]1C[C@@H](C)C/C(C)=C/[C@@H](C)C(=O)C[C@H](O)[C@@H](C)[C@@H](/C(C)=C/[C@@H]2CC[C@@H](O)[C@H](O)C2)OC(=O)[C@@H]2CCCCN2C(=O)C[C@]2(O)O[C@H]1[C@@H](OC)C[C@H]2C [9-deoxo-31-O-demethyl-FK523] | 3378 ng/mL | – | –
11 | CCCC1C=C(C)CC(C)CC(OC)C2OC(O)(CC(=O)N3CCCCC3C(=O)OC(C(C)=CC3CCC(O)C(O)C3)C(C)C(O)CC1=O)C(C)CC2OC (stereo not drawn) [9-deoxo-31-O-demethyl-36,37-dihydro-FK506] | 45.87 ng/mL | – | –
12 | CC[C@@H]1/C=C(\C)C[C@H](C)C[C@H](OC)[C@H]2O[C@@](O)(C(=O)C(=O)N3CCCC[C@H]3C(=O)O[C@H](/C(C)=C/[C@@H]3CC[C@@H](O)[C@H](O)C3)[C@H](C)[C@@H](O)CC1=O)[C@H](C)C[C@@H]2OC [31-O-demethyl-FK520] | 3.273 ng/mL | – | –
13 | 9-deoxo-prolyl-FK506 [reference compound] | 268.3 ng/mL | – | –
14 | CCC[C@@H]1/C=C(\C)C[C@H](C)C[C@H](OC)[C@H]2O[C@@](O)(C(=O)C(=O)N3CCCC[C@H]3C(=O)O[C@H](/C(C)=C/[C@@H]3CC[C@@H](O)[C@H](O)C3)[C@H](C)[C@@H](O)CC1=O)[C@H](C)C[C@@H]2OC [31-O-demethyl-36,37-dihydro-FK506] | 1.723 ng/mL | – | –
